Reference: article PMC6934184, “Selective DNA-PKcs inhibition extends the therapeutic index of localized radiotherapy and chemotherapy” (The Journal of Clinical Investigation, 2019)

Molecular target: T1, NEK6 (Homo sapiens, UniProt Q9HC98)
T1 construct: purchased Thermo Fisher Scientific (Life Technologies) SelectScreen
Assay: SelectScreen Z'LYTE
Format: biochemical
In short: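 SelectScreen broad panel; activity (Z'LYTE, Adapta) plus binding formats. ATP: Km app for CSF1R Z'LYTE; 10 for CAMK1 Adapta. Readout = % per kinase.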

T1 sequence (Q9HC98 whole entry): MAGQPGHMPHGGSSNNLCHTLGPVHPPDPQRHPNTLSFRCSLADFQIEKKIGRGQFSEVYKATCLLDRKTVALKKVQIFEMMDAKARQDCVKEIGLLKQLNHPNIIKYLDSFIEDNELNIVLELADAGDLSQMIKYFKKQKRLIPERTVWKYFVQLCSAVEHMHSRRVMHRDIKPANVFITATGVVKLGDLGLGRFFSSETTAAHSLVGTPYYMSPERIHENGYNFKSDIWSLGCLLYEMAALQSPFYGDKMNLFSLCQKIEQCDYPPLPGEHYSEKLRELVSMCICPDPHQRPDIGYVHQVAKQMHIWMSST

Work on `CN(C(=O)CN1CCOCC1)c1ccc2sc3c(-c4cccc5c(=O)cc(N6CC7CCC(C6)O7)oc45)cccc3c2c1` [NU5455] yielded an inhibition at 1 µM of -19.8%.
